Values of other authors as cited in publication PMC9516332 (Frontiers in Oncology, 2022).
Where two headings read alike, the source gives them in different places.

Tests used:
Settings in all cases: cited from earlier work
[1] = target: panel of 255 wild-type kinases (Homo sapiens, UniProt Q16288)
[2] = target: T1, panel of 255 wild-type kinases (Homo sapiens, UniProt Q92630)
T1 sequence (Q92630 1-601): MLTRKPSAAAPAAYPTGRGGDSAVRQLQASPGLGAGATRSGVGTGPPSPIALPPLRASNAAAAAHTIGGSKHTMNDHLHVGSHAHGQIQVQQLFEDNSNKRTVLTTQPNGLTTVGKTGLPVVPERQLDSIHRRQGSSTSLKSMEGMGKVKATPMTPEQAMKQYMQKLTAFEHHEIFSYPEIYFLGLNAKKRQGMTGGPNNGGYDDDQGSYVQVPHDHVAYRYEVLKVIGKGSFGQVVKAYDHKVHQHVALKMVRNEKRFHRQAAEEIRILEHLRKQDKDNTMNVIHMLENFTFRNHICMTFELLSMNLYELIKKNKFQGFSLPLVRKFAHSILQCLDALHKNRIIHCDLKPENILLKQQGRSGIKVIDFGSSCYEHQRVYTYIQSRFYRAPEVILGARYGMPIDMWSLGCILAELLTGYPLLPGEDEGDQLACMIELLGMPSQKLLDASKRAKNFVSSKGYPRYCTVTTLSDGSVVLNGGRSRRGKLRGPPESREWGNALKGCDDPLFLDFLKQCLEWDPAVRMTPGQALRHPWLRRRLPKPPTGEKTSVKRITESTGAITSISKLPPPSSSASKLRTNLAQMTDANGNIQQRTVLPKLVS

[3] = target: panel of 255 wild-type kinases (Homo sapiens, UniProt Q96SB4)
[4] = target: panel of 255 wild-type kinases (Homo sapiens, UniProt Q00534)
[5] = target: panel of 255 wild-type kinases (Homo sapiens, UniProt P53350)
[6] = target: panel of 255 wild-type kinases (Homo sapiens, UniProt Q14289)
[7] = target: T2, panel of 255 wild-type kinases (Homo sapiens, UniProt O00418)
T2 sequence (O00418 1-725): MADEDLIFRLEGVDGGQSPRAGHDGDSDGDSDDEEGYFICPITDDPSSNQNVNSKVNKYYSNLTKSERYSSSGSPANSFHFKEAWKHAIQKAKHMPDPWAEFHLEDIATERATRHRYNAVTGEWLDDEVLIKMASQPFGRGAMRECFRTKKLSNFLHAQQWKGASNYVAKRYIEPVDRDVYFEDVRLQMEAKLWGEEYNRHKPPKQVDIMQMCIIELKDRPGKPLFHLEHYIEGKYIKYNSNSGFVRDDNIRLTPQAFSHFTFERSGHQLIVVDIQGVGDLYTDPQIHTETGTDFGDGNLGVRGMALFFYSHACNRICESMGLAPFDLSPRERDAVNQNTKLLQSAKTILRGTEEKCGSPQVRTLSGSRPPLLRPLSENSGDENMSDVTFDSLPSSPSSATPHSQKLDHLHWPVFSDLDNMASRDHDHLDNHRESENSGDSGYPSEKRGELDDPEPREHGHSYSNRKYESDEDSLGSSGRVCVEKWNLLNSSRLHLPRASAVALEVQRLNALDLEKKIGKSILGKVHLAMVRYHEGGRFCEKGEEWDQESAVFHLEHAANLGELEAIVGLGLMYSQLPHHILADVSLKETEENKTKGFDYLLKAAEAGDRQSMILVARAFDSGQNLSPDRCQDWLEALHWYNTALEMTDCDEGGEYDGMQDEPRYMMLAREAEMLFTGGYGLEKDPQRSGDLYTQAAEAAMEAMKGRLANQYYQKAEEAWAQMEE

[8] = target: panel of 255 wild-type kinases (Homo sapiens, UniProt Q9UK32)
[9] = target: T3, panel of 255 wild-type kinases (Homo sapiens, UniProt P51813)
T3 sequence (P51813 1-675): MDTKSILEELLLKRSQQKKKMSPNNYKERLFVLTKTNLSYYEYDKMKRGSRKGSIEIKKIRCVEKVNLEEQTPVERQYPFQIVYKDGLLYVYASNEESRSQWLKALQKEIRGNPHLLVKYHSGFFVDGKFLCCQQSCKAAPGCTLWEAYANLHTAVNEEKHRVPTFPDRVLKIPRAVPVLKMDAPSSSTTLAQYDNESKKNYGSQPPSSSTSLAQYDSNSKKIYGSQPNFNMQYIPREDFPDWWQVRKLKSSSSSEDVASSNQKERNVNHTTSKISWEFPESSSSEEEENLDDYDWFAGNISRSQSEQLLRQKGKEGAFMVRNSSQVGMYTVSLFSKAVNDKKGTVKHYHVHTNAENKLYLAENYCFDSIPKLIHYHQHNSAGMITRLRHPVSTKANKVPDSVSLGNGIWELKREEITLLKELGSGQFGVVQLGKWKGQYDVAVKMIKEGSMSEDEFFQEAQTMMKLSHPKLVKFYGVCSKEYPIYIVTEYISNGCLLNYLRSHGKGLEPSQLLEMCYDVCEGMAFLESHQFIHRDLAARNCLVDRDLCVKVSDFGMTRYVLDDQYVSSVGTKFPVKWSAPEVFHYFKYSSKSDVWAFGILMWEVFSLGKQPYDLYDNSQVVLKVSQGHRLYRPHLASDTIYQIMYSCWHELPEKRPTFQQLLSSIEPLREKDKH

[10] = kinase TRKC, 1 µmol/L single concentration, ref DOI: 10.1158/1535-7163.MCT-18-0877
[11] = kinase DYRK2, 1 µmol/L single concentration, ref DOI: 10.1158/1535-7163.MCT-18-0877
[12] = kinase SRPK1, 1 µmol/L single concentration, ref DOI: 10.1158/1535-7163.MCT-18-0877
[13] = CDK6/CycD3 kinase assay, 1 µmol/L single concentration, ref DOI: 10.1158/1535-7163.MCT-18-0877
[14] = kinase PLK1, 1 µmol/L single concentration, ref DOI: 10.1158/1535-7163.MCT-18-0877
[15] = kinase PYK2, 1 µmol/L single concentration, ref DOI: 10.1158/1535-7163.MCT-18-0877
[16] = kinase EEF2K, 1 µmol/L single concentration, ref DOI: 10.1158/1535-7163.MCT-18-0877
[17] = kinase RSK4, 1 µmol/L single concentration, ref DOI: 10.1158/1535-7163.MCT-18-0877
[18] = BMX kinase assay, 1 µmol/L single concentration, ref DOI: 10.1158/1535-7163.MCT-18-0877
[19] = kinase DYRK2, 1 µmol/L single concentration, ref DOI: 10.1371/journal.pone.0092146
[20] = kinase PLK1, 1 µmol/L single concentration, ref DOI: 10.1371/journal.pone.0092146
[21] = kinase RSK4, 1 µmol/L single concentration, ref DOI: 10.1371/journal.pone.0092146

Row | Structure (SMILES) | %-inhibition at 1 µmol/L, TRKC [1, 10] [%] | %-inhibition at 1 µmol/L, DYRK2 [2, 11] [%] | %-inhibition at 1 µmol/L, SRPK1 [3, 12] [%] | %-inhibition CDK6/CycD3 [4, 13] [%] | %-inhibition at 1 µmol/L, PLK1 [5, 14] [%] | %-inhibition at 1 µmol/L, PYK2 [6, 15] [%] | %-inhibition at 1 µmol/L, EEF2K [7, 16] [%] | %-inhibition at 1 µmol/L, RSK4 [8, 17] [%] | %-inhibition BMX [9, 18] [%] | other results
1 | CC#CC(=O)N1CCC[C@H]1c1nc(-c2ccc(C(=O)Nc3ccccn3)cc2)c2c(N)nccn12 [acalabrutinib] | 11 | -16 | -4.73 | 3 | -2.57 | -3.55 | -12 | 4.21 |  | 
2 | CCc1cc2c(cc1N1CCC(N3CCOCC3)CC1)C(C)(C)c1[nH]c3cc(C#N)ccc3c1C2=O [alectinib] | 31 | 6 | 83 | -0.448 | -1.76 | 47 | -0.237 | 19 | 4 | 
3 | COc1cc(N2CCC(N3CCN(C)CC3)CC2)ccc1Nc1ncc(Cl)c(Nc2ccccc2P(C)(C)=O)n1 [brigatinib] |  |  |  |  |  |  |  |  |  | %-inhibition BMX [9]: 18%; %-inhibition at 1 µmol/L, TRKC [1]: 53%; %-inhibition at 1 µmol/L, DYRK2 [2]: 29%; %-inhibition at 1 µmol/L, SRPK1 [3]: 4%; %-inhibition CDK6/CycD3 [4]: 18%; %-inhibition at 1 µmol/L, PLK1 [5]: 49%; %-inhibition at 1 µmol/L, PYK2 [6]: 104%; %-inhibition at 1 µmol/L, EEF2K [7]: 2.53%; %-inhibition at 1 µmol/L, RSK4 [8]: 98%
4 | Cc1cc(Nc2ncc(Cl)c(Nc3ccccc3S(=O)(=O)C(C)C)n2)c(OC(C)C)cc1C1CCNCC1 [ceritinib] | 9 | 6.41 |  | 3.4 |  | 100 | 11 | 83 | -0.557 | 
5 | O=C(c1ccc(F)c(F)c1Nc1ccc(I)cc1F)N1CC(O)([C@@H]2CCCCN2)C1 [cobimetinib] | -1.37 | -2.74 | -11 | 0.129 | -1.08 | 2.5 | -0.685 | 5.52 | 3.49 | 
6 | C[C@@H](Oc1cc(-c2cnn(C3CCNCC3)c2)cnc1N)c1c(Cl)ccc(F)c1Cl [crizotinib] |  |  |  |  |  |  |  |  |  | %-inhibition at 1 µmol/L, DYRK2 [2, 19]: 10%; %-inhibition at 1 µmol/L, SRPK1 ([3]; kinase SRPK1, 1 µmol/L single concentration, ref DOI: 10.1371/journal.pone.0092146): 4.55%; %-inhibition CDK6/CycD3 ([4]; CDK6/CycD3 kinase assay, 1 µmol/L single concentration, ref DOI: 10.1371/journal.pone.0092146): 0.0624%; %-inhibition at 1 µmol/L, PLK1 [5, 20]: -3%; %-inhibition at 1 µmol/L, EEF2K ([7]; kinase EEF2K, 1 µmol/L single concentration, ref DOI: 10.1371/journal.pone.0092146): -4.6%; %-inhibition at 1 µmol/L, RSK4 [8, 21]: -1.58%
7 | CC(C)(C)c1nc(-c2cccc(NS(=O)(=O)c3c(F)cccc3F)c2F)c(-c2ccnc(N)n2)s1 [dabrafenib] |  |  |  |  |  |  |  |  |  | %-inhibition BMX ([9]; BMX kinase assay, 1 µmol/L single concentration, ref DOI: 10.1371/journal.pone.0092146): 55%; %-inhibition at 1 µmol/L, TRKC ([1]; kinase TRKC, 1 µmol/L single concentration, ref DOI: 10.1371/journal.pone.0092146): 81%; %-inhibition at 1 µmol/L, DYRK2 [2, 19]: 6%; %-inhibition at 1 µmol/L, PLK1 [5, 20]: -9%; %-inhibition at 1 µmol/L, PYK2 ([6]; kinase PYK2, 1 µmol/L single concentration, ref DOI: 10.1371/journal.pone.0092146): 56%; %-inhibition at 1 µmol/L, RSK4 [8, 21]: 2.2%
8 | C=CC(=O)N1CCC[C@@H](n2nc(-c3ccc(Oc4ccccc4)cc3)c3c(N)ncnc32)C1 [ibrutinib] | 24 | -1.83 | 1.2 | 4.32 | -2.28 | 3.37 | 1.15 | 5.52 |  | 
9 | CO[C@@H]1[C@H](N(C)C(=O)c2ccccc2)C[C@H]2O[C@]1(C)n1c3ccccc3c3c4c(c5c6ccccc6n2c5c31)C(=O)NC4 [midostaurin] |  |  | 1.28 | 1.81 | 6 | 72 | -9 |  | 81 | 
